Measurements reported in patent publication US12048686B2, “Compositions and methods for activating NRF2-dependent gene expression” (The University of Chicago, priority 2018, dated 2024).

Columns and labels:
[1] = target: T1, KEAP1 (Homo sapiens, UniProt Q14145); assay: MGx dose-response HMW-KEAP1 formation in FLAG-KEAP1 lysates or purified KEAP1; type: biochemical; conditions: FLAG-KEAP1 containing lysates or purified KEAP1, freshly distilled MGx
T1 construct: full-length, human KEAP1 (28023, Addgene) was transiently expressed from a pcDNA/FRT/TO plasmid with a C-terminal 3×FLAG tag; host or cells: HEK293T
T1 sequence (Q14145 whole entry): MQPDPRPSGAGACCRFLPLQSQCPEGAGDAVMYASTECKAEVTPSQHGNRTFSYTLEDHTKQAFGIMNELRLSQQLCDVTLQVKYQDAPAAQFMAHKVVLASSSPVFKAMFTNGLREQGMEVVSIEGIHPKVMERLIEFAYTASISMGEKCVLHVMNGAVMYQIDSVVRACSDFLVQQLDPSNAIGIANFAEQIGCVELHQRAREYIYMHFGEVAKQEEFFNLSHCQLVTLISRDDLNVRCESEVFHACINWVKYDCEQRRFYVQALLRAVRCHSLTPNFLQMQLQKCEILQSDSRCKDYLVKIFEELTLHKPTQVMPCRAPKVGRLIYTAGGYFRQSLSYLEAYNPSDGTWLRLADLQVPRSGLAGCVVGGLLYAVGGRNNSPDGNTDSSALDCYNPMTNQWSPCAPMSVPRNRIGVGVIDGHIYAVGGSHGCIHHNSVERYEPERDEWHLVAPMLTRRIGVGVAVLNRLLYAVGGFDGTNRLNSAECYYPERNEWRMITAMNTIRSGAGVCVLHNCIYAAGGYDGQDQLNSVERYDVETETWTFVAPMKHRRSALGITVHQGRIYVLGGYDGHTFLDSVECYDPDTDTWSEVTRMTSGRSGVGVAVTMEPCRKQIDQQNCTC
Protocol: Metabolite Treatments and HMW-KEAP1 screening. For in vitro screening of glycolytic metabolites, HEK293T cells expressing FLAG-KEAP1 were lysed by snap-freeze-thaw cycles (3×) in PBS, pH 7.4, containing EDTA-free complete protease inhibitor (Roche). Lysates were cleared by centrifugation and the supernatants normalized for concentration by Bradford reagent (2 mg/mL). Concentrated stocks of each metabolite were made in PBS, which were added to the lysate samples for the final indicated concentrations and incubated at 37° C. for 2.5 hours with shaking. Following incubation, samples were denatured with 6 M urea and processed for SDS-PAGE and western blotting. Methylglyoxal (40% v/v with H2O), glyceraldehyde 3-phosphate (GAP), dihydroxyacetone phosphate (DHAP), and 2,3-bisphosphoglycerate (2,3-BPG) were all obtained from Sigma Aldrich and used as PBS stocks. […] Each mixture was incubated at 37° C. for 8 hours with rotating, HMW-KEAP1 formation was analyzed by SDS-PAGE and western blot.
For studies with recombinant KEAP1, FLAG-KEAP1 was expressed in HEK293T cells from transient transfection of the Flag-Keap1 plasmid (Addgene plasmid #28023). […] 12 μL of this reaction was then separated by SDS-PAGE and the presence of HMW-KEAP1 evaluated by anti-FLAG Western blotting as described or by silver staining using the Pierce Silver Stain Kit (ThermoFisher Scientific).

[2] = tested on: NRF2-dependent luciferase reporter (pTI-ARE-LUC); assay: ARE-LUC reporter assay in HEK293T cells with PGK1 knockdown or overexpression; type: cell-based
Protocol: FIG. 1A-D. CBR-470-1-dependent inhibition of glycolysis activates NRF2 signaling. […] PGK1, Actin and Tubulin protein levels are shown from representative experiments (n=3). (c) Heat map depiction of relative metabolite levels in IMR32 cells treated for 30 min with CBR-470-1 (left) or viral shRNA knockdown of PGK1 (right) relative to DMSO and scramble shRNA controls, respectively. BPG refers to both 2,3-BPG and 1,3-BPG, whereas 1,3-BPG specifically refers to the 1,3-isomer.
High throughput screening and ARE-LUC reporter assay. For high throughput screening, IMR32 cells were plated at 5×10^3 cells per well in white 384-well plates in 40 μL of growth medium. […] After 24 hour incubation, ARE-LUC luminance values were recorded on an Envision instrument after the addition of 30 μL of Bright Glo reagent solution (Promega, diluted 1:3 in water). […] For overexpression and knockdown experiments in HEK293T with ARE-LUC reporter readouts, 5×10^5 cells were plated on poly-d-lysine coated plates and transfected with 1.5 μg of overexpression or shRNA plasmid and 500 ng of pTI-ARE-LUC using Optimem medium and Fugene in the same mode as above. […] ARE-LUC luminance values were recorded on an Envision plate reader 24 hours later by the addition of 75 μL of Bright Glo reagent solution (1:3 in water).

[3] = tested on: Primary murine alveolar macrophages; assay: PM-induced mRNA expression in primary murine alveolar macrophages; type: cell-based; conditions: pretreated 4 hours, 4 hours later
Protocol: FIG. 19A-C. Primary murine alveolar macrophages were treated with PM or vehicle control (media) in the absence or presence of CBR-470-1 (pretreated 4 hours prior to PM) and measured IL-6, TNFa and NQO1 mRNA 4 hours later.

[4] = tested on: 20 line panel; assay: Viability in 20 cell line panel correlated with CCLE mRNA levels; type: cell-based
Protocol: FIG. 36A-B. Viability assays performed in each cell line with compound treatment with CBR-470-1. Concentrations ranging from 0.1 to 30 micromolar for 48 hr. Viability was measured using Cell titer glo ATP quantification assay. Representative curves for three cell lines at 48 are shown on the left in (A). Table of 20 cell line IC50 values are shown in (B).
It was analyzed whether 1,3-BPG, which is directly metabolized by PGK1, could be involved in signaling to the KEAP1-NRF2 pathway via phosphoglyceryl-lysine (pgK) modification of KEAP1. […] Viability assays were performed in IMR32, OVCAR3, and A549 cell lines with compound treatment with CBR-470-1. Concentrations ranging from 0.1 to 30 micromolar for 48 hr. Viability was measured using Cell titer glo ATP quantification assay. Representative curves for three cell lines at 48 are shown in (FIG. 36A). Table of 20 cell line IC50 values are shown in (FIG. 36B).
Each point in FIG. 37 represents the correlation value (R^2) between cell line IC50 value (i.e. sensitivity) to CBR-470 plotted against the relative mRNA level (Z-score) for that cell line, and all other cell lines in the 20 line panel. mRNA levels were curated from the cancer cell line encyclopedia (CCLE).

EC50 of ARE-LUC reporter activation ([2]; knockdown of PGK1)	EC50 of ARE-LUC reporter activation ([2]; overexpression of PGK1)	SMILES	formation of HMW-KEAP1 [1]	IL-6 mRNA [3]	NQO1 mRNA [3]	TNFa mRNA [3]	sensitivity (IC50) versus GLO1 mRNA level [4]	sensitivity (IC50) versus NRF2 target gene expression [4]
–	–	CC(=O)C=O [MGx, methylglyoxal, reference compound]	dose-dependent formation of HMW-KEAP1 at mid-μM concentrations	–	–	–	–	–
decreased	increased	CC(C)CN[C@H]1CS(=O)(=O)C[C@@H]1S(=O)(=O)c1ccc(Cl)cc1 [CBR-470-1]	–	attenuated PM-induced l6 and TNFa mRNA expression	induced NQO1 (Nrf2 target gene)	attenuated PM-induced l6 and TNFa mRNA expression	high GLO1 exhibit higher sensitivity	lower NRF2 target gene expression show increased sensitivity
